Reference: patent US11505543B2, “4-oxo-3,4-dihydroquinazoline compounds as inhibitors of human immunodeficiency virus replication” (VIIV HEALTHCARE UK (NO.5) LIMITED, priority 2018, dated 2022)

Tests used:
[1] = system: recombinant NL4-3 virus (nef section replaced with Renilla luciferase gene) in MT-2 cells; assay: HIV cell culture assay (antiviral activity, luciferase readout); type: cell-based; details: Renilla, NL43, MT-2 cells infected for 4-5 days with recombinant NL4-3 Renilla luciferase virus, serial dilutions of compound
Description: HIV cell culture assay—MT-2 cells, 293T cells and the proviral DNA clone of NL4-3 virus were obtained from the NIH AIDS Research and Reference Reagent Program. MT-2 cells were propagated in RPMI 1640 media supplemented with 10% heat inactivated fetal bovine serum (FBS), 100 μg/ml penicillin G and up to 100 units/mL streptomycin. The 293T cells were propagated in DMEM media supplemented with 10% heat inactivated FBS, 100 μg/mL penicillin G and 100 μg/mL streptomycin. A recombinant NL4-3 proviral clone, in which a section of the nef gene was replaced with the Renilla luciferase gene, was used to make the reference virus used in these studies. The recombinant virus was prepared through transfection of the recombinant NL4-3 proviral clone into 293T cells using Transit-293 Transfection Reagent from Mirus Bio LLC (Madison, Wis.). Supernatent was harvested after 2-3 days and the amount of virus present was titered in MT-2 cells using luciferase enzyme activity as a marker by measuring luciferase enzyme activity. Luciferase was quantitated using the EnduRen Live Cell Substrate from Promega (Madison, Wis.). Antiviral activities of compounds toward the recombinant virus were quantified by measuring luciferase activity in MT-2 cells infected for 4-5 days with the recombinant virus in the presence of serial dilutions of the compound.
The 50% effective concentration (EC50) was calculated by using the exponential form of the median effect equation where (Fa)=1/[1+(ED50/drug conc.)^m] (Johnson VA, Byington RT. Infectivity Assay. In Techniques in HIV Research. ed. Aldovini A, Walker BD. 71-76. New York: Stockton Press. 1990). Curve fitting and analysis were performed with ActivityBase XE Runner software version 9.1.0.4 using model 203 (ID Business Solutions, LTD, Guildford, UK).

[2] = Compound cytotoxicity, XTT-based colorimetric assay; type: cell-based; details: human, uninfected MT2 cells, day 4, XTT
Description: Compound cytotoxicity and the corresponding CC50 values were determined using the same protocol as described in the antiviral assay except that uninfected cells were used. Cytotoxicity was assessed on day 4 in uninfected MT2 cells by using a XTT (2,3-bis[2-Methoxy-4-nitro-5-sulfophenyl]-2H-tetrazolium-5-carboxyanilide inner salt)-based colorimetric assay (Sigma-Aldrich, St Louis, Mo.).

SMILES | EC50 [1] [nM] | CC50 at 4 day [2] [nM]
CC(C)c1cccc(-c2ccc3c(=O)n(-c4ccc(Cl)c5c(NS(C)(=O)=O)nn(C)c45)c([C@H](Cc4cc(F)cc(F)c4)NC(=O)Cn4nc(C(F)F)c5c4C(F)(F)[C@@H]4C[C@H]54)nc3c2)c1 (atropisomer, axis not shown; (aR)) [Example 41, N-((S)-1-(3-(4-chloro-1-methyl-3-(methylsulfonamido)-1H-indazol-7-yl)-7-(3-isopropylphenyl)-4-oxo-3,4-dihydroquinazolin-2-yl)-2-(3,5-difluorophenyl)ethyl)-2-((3bS,4aR)-3-(difluoromethyl)-5,5-difluoro-3b,4,4a,5-tetrahydro-1H-cyclopropa[3,4]cyclopenta[1,2-c]pyrazol-1-yl)acetamide] | 4.5 | > 1000
Cn1nc(NS(C)(=O)=O)c2c(Cl)ccc(-n3c([C@H](Cc4cc(F)cc(F)c4)NC(=O)Cn4nc(C(F)F)c5c4C(F)(F)[C@@H]4C[C@H]54)nc4cc(-c5ccccc5Cl)ccc4c3=O)c21 (atropisomer, axis not shown; (aR)) [Example 43, N-((S)-1-(3-(4-chloro-1-methyl-3-(methylsulfonamido)-1H-indazol-7-yl)-7-(2-chlorophenyl)-4-oxo-3,4-dihydroquinazolin-2-yl)-2-(3,5-difluorophenyl)ethyl)-2-((3bS,4aR)-3-(difluoromethyl)-5,5-difluoro-3b,4,4a,5-tetrahydro-1H-cyclopropa[3,4]cyclopenta[1,2-c]pyrazol-1-yl)acetamide] | 0.69 | > 1000
Cn1nc(NS(C)(=O)=O)c2c(Cl)ccc(-n3c([C@H](Cc4cc(F)cc(F)c4)NC(=O)Cn4nc(C(F)F)c5c4C(F)(F)[C@@H]4C[C@H]54)nc4cc(-c5cccc(F)c5CO)ccc4c3=O)c21 (atropisomer, axis not shown; (aR)) [Example 44, N-((S)-1-(3-(4-chloro-1-methyl-3-(methylsulfonamido)-1H-indazol-7-yl)-7-(3-fluoro-2-(hydroxymethyl)phenyl)-4-oxo-3,4-dihydroquinazolin-2-yl)-2-(3,5-difluorophenyl)ethyl)-2-((3bS,4aR)-3-(difluoromethyl)-5,5-difluoro-3b,4,4a,5-tetrahydro-1H-cyclopropa[3,4]cyclopenta[1,2-c]pyrazol-1-yl)acetamide] | 0.12 | > 1000
Cn1nc(NS(C)(=O)=O)c2c(Cl)ccc(-n3c([C@H](Cc4cc(F)cc(F)c4)NC(=O)Cn4nc(C(F)F)c5c4C(F)(F)[C@@H]4C[C@H]54)nc4cc(-c5cccc(C(C)(C)C)c5)ccc4c3=O)c21 (atropisomer, axis not shown; (aR)) [Example 45, N-((S)-1-(7-(3-(tert-butyl)phenyl)-3-(4-chloro-1-methyl-3-(methylsulfonamido)-1H-indazol-7-yl)-4-oxo-3,4-dihydroquinazolin-2-yl)-2-(3,5-difluorophenyl)ethyl)-2-((3bS,4aR)-3-(difluoromethyl)-5,5-difluoro-3b,4,4a,5-tetrahydro-1H-cyclopropa[3,4]cyclopenta[1,2-c]pyrazol-1-yl)acetamide] | 4.5 | > 1000
COc1cccc(-c2ccc3c(=O)n(-c4ccc(Cl)c5c(NS(C)(=O)=O)nn(C)c45)c([C@H](Cc4cc(F)cc(F)c4)NC(=O)Cn4nc(C(F)F)c5c4C(F)(F)[C@@H]4C[C@H]54)nc3c2)n1 (atropisomer, axis not shown; (aR)) [Example 46, N-((S)-1-(3-(4-chloro-1-methyl-3-(methylsulfonamido)-1H-indazol-7-yl)-7-(6-methoxypyridin-2-yl)-4-oxo-3,4-dihydroquinazolin-2-yl)-2-(3,5-difluorophenyl)ethyl)-2-((3bS,4aR)-3-(difluoromethyl)-5,5-difluoro-3b,4,4a,5-tetrahydro-1H-cyclopropa[3,4]cyclopenta[1,2-c]pyrazol-1-yl)acetamide] | 0.56 | > 1000
Cn1nc(NS(C)(=O)=O)c2c(Cl)ccc(-n3c([C@H](Cc4cc(F)cc(F)c4)NC(=O)Cn4nc(C(F)F)c5c4C(F)(F)[C@@H]4C[C@H]54)nc4cc(-c5ccc(Cl)cc5)ccc4c3=O)c21 (atropisomer, axis not shown; (aR)) [Example 51, N-((S)-1-(3-(4-chloro-1-methyl-3-(methylsulfonamido)-1H-indazol-7-yl)-7-(4-chlorophenyl)-4-oxo-3,4-dihydroquinazolin-2-yl)-2-(3,5-difluorophenyl)ethyl)-2-((3bS,4aR)-3-(difluoromethyl)-5,5-difluoro-3b,4,4a,5-tetrahydro-1H-cyclopropa[3,4]cyclopenta[1,2-c]pyrazol-1-yl)acetamide] | 3.3 | > 1000
Cn1nc(NS(C)(=O)=O)c2c(Cl)ccc(-n3c([C@H](Cc4cc(F)cc(F)c4)NC(=O)Cn4nc(C(F)F)c5c4C(F)(F)[C@@H]4C[C@H]54)nc4cc(-c5cccc(S(C)(=O)=O)c5)ccc4c3=O)c21 (atropisomer, axis not shown; (aR)) [Example 54, N-((S)-1-(3-(4-chloro-1-methyl-3-(methylsulfonamido)-1H-indazol-7-yl)-7-(3-(methylsulfonyl)phenyl)-4-oxo-3,4-dihydroquinazolin-2-yl)-2-(3,5-difluorophenyl)ethyl)-2-((3bS,4aR)-3-(difluoromethyl)-5,5-difluoro-3b,4,4a,5-tetrahydro-1H-cyclopropa[3,4]cyclopenta[1,2-c]pyrazol-1-yl)acetamide] | 0.21 | > 1000
Cn1nc(NS(C)(=O)=O)c2c(Cl)ccc(-n3c([C@H](Cc4cc(F)cc(F)c4)NC(=O)Cn4nc(C(F)F)c5c4C(F)(F)[C@@H]4C[C@H]54)nc4cc(-c5ccc(Cl)c(C(=O)O)c5)ccc4c3=O)c21 (atropisomer, axis not shown; (aR)) [Example 57] | 17 | > 1000
COc1ccc(-c2ccc3c(=O)n(-c4ccc(Cl)c5c(NS(C)(=O)=O)nn(C)c45)c([C@H](Cc4cc(F)cc(F)c4)NC(=O)Cn4nc(C(F)F)c5c4C(F)(F)[C@@H]4C[C@H]54)nc3c2)cn1 (atropisomer, axis not shown; (aR)) [Example 58, N-((S)-1-(3-(4-chloro-1-methyl-3-(methylsulfonamido)-1H-indazol-7-yl)-7-(6-methoxypyridin-3-yl)-4-oxo-3,4-dihydroquinazolin-2-yl)-2-(3,5-difluorophenyl)ethyl)-2-((3bS,4aR)-3-(difluoromethyl)-5,5-difluoro-3b,4,4a,5-tetrahydro-1H-cyclopropa[3,4]cyclopenta[1,2-c]pyrazol-1-yl)acetamide] | 0.34 | > 1000
CC(C)c1ccc(-c2ccc3c(=O)n(-c4ccc(Cl)c5c(NS(C)(=O)=O)nn(C)c45)c([C@H](Cc4cc(F)cc(F)c4)NC(=O)Cn4nc(C(F)F)c5c4C(F)(F)[C@@H]4C[C@H]54)nc3c2)cc1 (atropisomer, axis not shown; (aR)) [Example 59, N-((S)-1-(3-(4-chloro-1-methyl-3-(methylsulfonamido)-1H-indazol-7-yl)-7-(4-isopropylphenyl)-4-oxo-3,4-dihydroquinazolin-2-yl)-2-(3,5-difluorophenyl)ethyl)-2-((3bS,4aR)-3-(difluoromethyl)-5,5-difluoro-3b,4,4a,5-tetrahydro-1H-cyclopropa[3,4]cyclopenta[1,2-c]pyrazol-1-yl)acetamide] | 5.3 | > 1000
Cc1nn(C)c(C)c1-c1ccc2c(=O)n(-c3ccc(Cl)c4c(NS(C)(=O)=O)nn(C)c34)c([C@H](Cc3cc(F)cc(F)c3)NC(=O)Cn3nc(C(F)F)c4c3C(F)(F)[C@@H]3C[C@H]43)nc2c1 (atropisomer, axis not shown; (aR)) [Example 60, N-((S)-1-(3-(4-chloro-1-methyl-3-(methylsulfonamido)-1H-indazol-7-yl)-4-oxo-7-(1,3,5-trimethyl-1H-pyrazol-4-yl)-3,4-dihydroquinazolin-2-yl)-2-(3,5-difluorophenyl)ethyl)-2-((3bS,4aR)-3-(difluoromethyl)-5,5-difluoro-3b,4,4a,5-tetrahydro-1H-cyclopropa[3,4]cyclopenta[1,2-c]pyrazol-1-yl)acetamide] | 0.32 | > 1000
